The results in this text go back to patent US10604512B2, “3-(1H-indol-2-yl)-1H-indazoles and therapeutic uses thereof” (Samumed, LLC, priority 2015, dated 2020).

Molecules are shown by their SMILES.

What all share (assay type): cell-based
Assay [1] concerns Wnt activity (Sp5-Luc reporter, TCF/LEF binding sites) in SW480 colon carcinoma cells. As to the kind of experiment: Screening assay for Wnt activity: Sp5-Luc reporter gene assay in stably transduced SW480 colon carcinoma cells. The following applies: Homo sapiens, overnight incubation, 10-point curve from 10 μM. The source says:
The screening assay for Wnt activity is described as follows. Reporter cell lines can be generated by stably transducing cancer cell lines (e.g., colon cancer) or primary cells (e.g., IEC-6 intestinal cells) with a lentiviral construct that includes a Wnt-responsive promoter driving expression of the firefly luciferase gene.
SW480 colon carcinoma cells were transduced with a lentiviral vector expressing luciferase with a human Sp5 promoter consisting of a sequence of eight TCF/LEF binding sites. SW480 cells stably expressing the Sp5-Luc reporter gene and a hygromycin resistance gene were selected by treatment with 150 μg/mL of hygromycin for 7 days. These stably transduced SW480 cells were expanded in cell culture and used for all further screening activities. Each compound was dissolved in DMSO as a 10 mM stock and used to prepare compound source plates. Serial dilution (1:3, 10-point dose-response curves starting from 10 μM) and compound transfer was performed using the ECHO 550 (Labcyte, Sunnyvale, Calif.) into 384-well white solid bottom assay plates (Greiner Bio-One) with appropriate DMSO backfill for a final DMSO concentration of 0.1%. For Sp5-Luc reporter gene assays, the cells were plated at 4,000 cells/well in 384-well plates with medium containing 1% fetal bovine serum and incubated overnight at 37° C. and 5% CO2. Following incubation, 20 μl of BrightGlo luminescence reagent (Promega) was added to each well of the 384-well assay plates. The plates were placed on an orbital shaker for 2 min and then luminescence was quantified using the Envision (Perkin Elmer) plate reader. Readings were normalized to DMSO only treated cells, and normalized activities were utilized for EC50 calculations using the dose-response log (inhibitor) vs. response variable slope (four parameters) nonlinear regression feature available in GraphPad Prism 5.0 (or Dotmatics). For EC50 of >10 μM, the percent inhibition at 10 μM is provided.

The test system of a further assay is SW480 colon cancer cells. As to the kind of experiment: Cell viability assay (CellTiter-Blue) in SW480 colon cancer cells. The following applies: Homo sapiens, 96 h, four days, CellTiter-Blue. How it is done: Representative compounds were screened using the following assay procedure to assess the effect on cell viability as described below.
Each compound was dissolved in DMSO as a 10 mM stock and used to prepare compound source plates. Serial dilution (1:3, 8-point dose-response curves from 10 μM to 0.0045 μM) and compound transfer was performed using the ECHO 550 (Labcyte, Sunnyvale, Calif.) into 96-well clear bottom, black-walled plates (Corning-Costar).
Approximately 2×10^3 SW480 colon cancer cells were seeded into each well and allowed to incubate in the presence or absence of compound for four days at 37° C./5% CO2. Eight replicates of DMSO-treated cells served as controls and cells treated with compound were performed in duplicate.
After incubation, 20 μL of CellTiter-Blue (Promega) was added to each well allowed to incubate for approximately 3 hours. This reagent was a buffered solution which contains resazurin, metabolically active cells were able to reduce rezarurin (blue) into resorufin (pink) which was highly fluorescent. This measured fluorescence was used as a readout for cell viability.
After incubation, the plates were read at Ex 560 nm Em 590 nm (Cytation 3, BioTek). Dose-response curves were generated and EC50 concentration values were calculated using non-linear regression curve fit in the GraphPad Prism (San Diego, Calif.) or Dotmatics' Studies Software (Bishops Stortford, UK). For EC50 of >10 μM, the percent inhibition at 10 μM is provided.
On the technique in general: Alamar Blue is a resazurin reagent that responds to reducing activity.

Assay [2] concerns Primary human fibroblasts derived from IPF patients (LL29 cells) treated with TGF-β1. The assay is described as follows: Inhibition of the fibrotic process: αSMA staining in TGF-β1-treated primary human fibroblasts from IPF patients (LL29 cells). The conditions noted are these: Fibroblast, 96 h, % αSMA-positive LL29 cells, TGF-β1 20 ng/mL, 4 days. The source says: Representative compounds were screened using primary human fibroblasts (derived from IPF patients) treated with TGF-β1 to determine their ability to inhibit the fibrotic process.
Primary human fibroblasts derived from IPF patients (LL29 cells) [^1Xiaoqiu Liu, et. al., “Fibrotic Lung Fibroblasts Show Blunted Inhibition by cAMP Due to Deficient cAMP Response Element-Binding Protein Phosphorylation”, Journal of Pharmacology and Experimental Therapeutics (2005), 315(2), 678-687; ^2Watts, K. L., et. al., “RhoA signaling modulates cyclin D1 expression in human lung fibroblasts; implications for idiopathic pulmonary fibrosis”, Respiratory Research (2006), 7(1), 88] were obtained from American Type Culture Collection (ATCC) and expanded in F12 medium supplemented with 15% Fetal Bovine Serum and Penicillin/Streptomycin.
Each compound was dissolved in DMSO as a 10 mM stock and used to prepare compound source plates. Serial dilution (1:2, 11-point dose-response curves from 10 μM to […]) and compound transfer was performed using the ECHO 550 (Labcyte, Sunnyvale, Calif.) into 384-well clear bottom assay plates (Greiner Bio-One) with appropriate DMSO backfill for a final DMSO concentration of 0.1%. LL29 cells are plated at 1,500 cells/well in 80 μL/well F12 medium supplemented with 1% Fetal Bovine Serum. One hour after addition of the cells, TGF-β1 (Peprotech; 20 ng/mL) was added to the plates to induce fibrosis (ref 1 and 2 above). Wells treated with TGF-β1 and containing DMSO were used as controls. Cells were incubated at 37° C. and 5% CO2 for 4 days. Following incubation for 4 days, SYTOX green nucleic acid stain (Life Technologies [Thermo Fisher Scientific]) was added to the wells at a final concentration of 1 μM and incubated at room temperature for 30 min. Cells were then fixed using 4% formaldehyde (Electron Microscopy Sciences), washed 3 times with PBS followed by blocking and permeabilization using 3% Bovine Serum Albumin (BSA; Sigma) and 0.3% Triton X-100 (Sigma) in PBS. Cells were then stained with antibody specific to α-smooth muscle actin (αSMA; Abcam) (ref 1 and 2 above) in 3% Bovine Serum Albumin (BSA; Sigma) and 0.3% Triton X-100 (Sigma) in PBS, and incubated overnight at 4° C. Cells were then washed 3 times with PBS, followed by incubation with Alexa Flor-647 conjugated secondary antibody (Life Technologies [Thermo Fisher Scientific]) and DAPI at room temperature for 1 hour. Cells were then washed 3 times with PBS and plates were sealed for imaging. αSMA staining was imaged by excitation at 630 nm and emission at 665 nm and quantified using the Compartmental Analysis program on the CellInsight CX5 (Thermo Scientific). Dead or apoptotic cells were excluded from analysis based on positive SYTOX green staining. % of total cells positive for αSMA were counted in each well and normalized to the average of 11 wells treated with TGF-β1 on the same plate using Dotmatics' Studies Software. The normalized averages (fold change over untreated) of 3 replicate wells for each compound concentration were used to create dose-responses curves and EC50 values were calculated using non-linear regression curve fit in the Dotmatics' Studies Software. For EC50 of >10 μM, the percent inhibition at 10 μM is provided.

Another assay concerns IL-6. The assay is described as follows: Inhibition of IL-6 in LPS-stimulated THP-1 human monocyte cells (HTRF). The conditions noted are these: for EC50: IL-6 inhibition, LPS-stimulated THP-1 cells, HTRF. As for the experimental part: Human monocyte cell line (THP-1 cells; Catalog # TIB-202, ATCC, Manassas, Va.) were cultured in Roswell Park Memorial Institute (RPMI) 1640 Medium (Catalog #21870-100, Buffalo, N.Y.) with 1% L-glutamine, 1% HEPES, 1% Sodium Pyruvate, 2% Sodium Bicarbonate supplemented with 100 units/mL penicillin, 50 μg/mL streptomycin, 2-mercaptoethanol (0.05 mM) [basal medium] and 10% fetal bovine serum (Catalog #16140089, Life Technologies, Carlsbad, Calif.) at 37° C. and 5% CO2.
THP-1 cells were cultured in basal media with 1% FBS for 24 hours before the start of the assay. Each compound was dissolved in DMSO as a 10 mM stock and used to prepare compound source plates. Serial dilution (1:3, 10-point dose-response curves starting from 10 μM) and compound transfer was performed using the ECHO 550 (Labcyte, Sunnyvale, Calif.) into 384-well white low volume assay plates (Greiner Bio-One) with appropriate DMSO backfill for a final DMSO concentration of 0.1%. THP-1 cells were plated at 5000 cells/well in the 384-well plates and incubated at 37° C. for 2 h. 500 ng/mL of LPS was added after 2 hours and cells were incubated for another 22 hours at 37° C. Plates were spun in a centrifuge for 1 minute at […] and a mixture of anti-IL6 XL665, and anti-IL6 Cryptate diluted in reconstitution buffer (Cisbio Inc.) was added to each well. Following incubation for 3 hrs at room temperature, Homogeneous Time-Resolved Fluorescence (HTRF) was measured using the Envision (Perkin Elmer) at 665 nm and […]. The ratio of fluorescence at 665 nm to 620 nm was used as a readout for IL6 quantification. All samples were processed in duplicate. Readings were normalized to DMSO treated cells and normalized activities were utilized for EC50 calculations using the dose-response log (inhibitor) vs. response variable slope (four parameters) nonlinear regression feature available in GraphPad Prism 5.0 (or Dotmatics). For EC50 of >10 μM, the percent inhibition at 10 μM is provided.

The EC50 is the concentration giving half of the maximal effect. A low value points to greater potency. `Cc1ccncc1-c1ccc2[nH]nc(-c3cc4c(-c5cccc(F)c5)cccc4[nH]3)c2c1` [Compound 5, 3-(4-(3-Fluorophenyl)-1H-indol-2-yl)-5-(4-methylpyridin-3-yl)-1H-indazole]: the EC50 was 300 nM in assay [1], 563 nM in the assay with SW480 colon cancer cells, 737 nM in assay [2] and 834 nM in the assay with IL-6.

As to `Fc1cccc(-c2cccc3[nH]c(-c4n[nH]c5ccc(-c6cncc(CN7CCC(F)(F)C7)c6)cc45)cc23)c1` [Compound 26, 5-(5-((3,3-diFluoropyrrolidin-1-yl)methyl)pyridin-3-yl)-3-(4-(3-fluorophenyl)-1H-indol-2-yl)-1H-indazole], the half-maximal effective concentration (EC50) in assay [1] was found to be 495 nM; in the assay on SW480 colon cancer cells, 4090 nM; in assay [2] it was 815 nM; in the assay on IL-6 it was 1220 nM.

For `O=C(Nc1cncc(-c2ccc3[nH]nc(-c4cc5c(-c6ccc(F)cc6)cccc5[nH]4)c3c2)c1)C1CCC1` [Compound 49, N-(5-(3-(4-(4-Fluorophenyl)-1H-indol-2-yl)-1H-indazol-5-yl)pyridin-3-yl) cyclobutanecarboxamide], the EC50 amounted to 190 nM in assay [1], 2600 nM in the assay with SW480 colon cancer cells, 778 nM in assay [2] and 35 nM in the assay on IL-6.

For `CC(C)C(=O)Nc1cncc(-c2ccc3[nH]nc(-c4cc5c(-c6ccccc6F)cccc5[nH]4)c3c2)c1` [Compound 65, N-(5-(3-(4-(2-Fluorophenyl)-1H-indol-2-yl)-1H-indazol-5-yl)pyridin-3-yl) isobutyramide], the concentration for a half-maximal effect (EC50) in assay [1] worked out at 1160 nM; in the assay with SW480 colon cancer cells it was 981 nM; in assay [2], 305 nM; in the assay with IL-6, 105 nM.

On to `Fc1ccccc1-c1cccc2[nH]c(-c3n[nH]c4ccc(-c5cncc(CN6CCCCC6)c5)cc34)cc12` [Compound 71, 3-(4-(2-Fluorophenyl)-1H-indol-2-yl)-5-(5-(piperidin-1-ylmethyl)pyridin-3-yl)-1H-indazole], for which the 50% effective concentration (EC50) in assay [1] was 1160 nM; with SW480 colon cancer cells it was 2170 nM; in assay [2], 2550 nM; in the assay with IL-6, 3110 nM.

Turning to `CCCCC(=O)Nc1cncc(-c2ccc3[nH]nc(-c4cc5c(-c6ccccc6F)cccc5[nH]4)c3c2)c1` [Compound 75, N-(5-(3-(4-(2-Fluorophenyl)-1H-indol-2-yl)-1H-indazol-5-yl)pyridin-3-yl) pentanamide], the EC50 in assay [1] amounted to 1960 nM; in the assay on SW480 colon cancer cells, 4800 nM; in assay [2] it was 1980 nM; in the assay on IL-6, 1000 nM.

For the compound `Fc1ccccc1-c1cccc2[nH]c(-c3n[nH]c4ccc(-c5cncc(CN6CCC(F)(F)C6)c5)cc34)cc12` [Compound 82, 5-(5-((3,3-Difluoropyrrolidin-1-yl)methyl)pyridin-3-yl)-3-(4-(2-fluorophenyl)-1H-indol-2-yl)-1H-indazole], the concentration for a half-maximal effect (EC50) was 2980 nM in assay [1], 5240 nM in the assay with SW480 colon cancer cells, 2260 nM in assay [2] and 4300 nM with IL-6.

`Fc1ccccc1-c1cccc2[nH]c(-c3n[nH]c4ccc(-c5ccccn5)cc34)cc12` [Compound 84, 3-(4-(2-Fluorophenyl)-1H-indol-2-yl)-5-(pyridin-2-yl)-1H-indazole]: the EC50 in assay [1] was found to be 2880 nM; with SW480 colon cancer cells, 4200 nM; in assay [2] it was 6740 nM; in the assay with IL-6, 2380 nM.

For the compound `CC(C)(C)C(=O)Nc1cncc(-c2ccc3[nH]nc(-c4cc5c(-c6cccnc6)cccc5[nH]4)c3c2)c1` [Compound 92, N-(5-(3-(4-(Pyridin-3-yl)-1H-indol-2-yl)-1H-indazol-5-yl)pyridin-3-yl) pivalamide], the EC50 in assay [1] is 140 nM; with SW480 colon cancer cells, 1320 nM; in assay [2], 612 nM; in the assay on IL-6, 153 nM.

`COc1cncc(-c2ccc3[nH]nc(-c4cc5c(-c6ccc(C)s6)cccc5[nH]4)c3c2)c1` [Compound 768, 5-(5-Methoxypyridin-3-yl)-3-(4-(5-methylthiophen-2-yl)-1H-indol-2-yl)-1H-indazole]: the figures for the EC50 (in assay [1]; with SW480 colon cancer cells; in the assay with IL-6) were 250 nM, 1100 nM and more than 10000 nM, respectively. Further, the inhibition at 10 µM with IL-6 (THP-1, printed beside >10 μM EC50, top concentration 10 μM, meaning not given, read-out: percentage in parentheses after EC50 >10) was determined as 49.8%.
